Measurements from PMC7747997 (Plant Communications, 2019).

Experiments:
Experiment in all cases: X-ray crystal structure, […] Å
Assay type in all cases: binding
SrUGT76G1 [1] = biological target: T1, SrUGT76G1 (Stevia rebaudiana, UniProt Q6VAB4); conditions: donor site; crystals set up with UDP-xylose and Sb
T1 sequence (Q6VAB4 1-458): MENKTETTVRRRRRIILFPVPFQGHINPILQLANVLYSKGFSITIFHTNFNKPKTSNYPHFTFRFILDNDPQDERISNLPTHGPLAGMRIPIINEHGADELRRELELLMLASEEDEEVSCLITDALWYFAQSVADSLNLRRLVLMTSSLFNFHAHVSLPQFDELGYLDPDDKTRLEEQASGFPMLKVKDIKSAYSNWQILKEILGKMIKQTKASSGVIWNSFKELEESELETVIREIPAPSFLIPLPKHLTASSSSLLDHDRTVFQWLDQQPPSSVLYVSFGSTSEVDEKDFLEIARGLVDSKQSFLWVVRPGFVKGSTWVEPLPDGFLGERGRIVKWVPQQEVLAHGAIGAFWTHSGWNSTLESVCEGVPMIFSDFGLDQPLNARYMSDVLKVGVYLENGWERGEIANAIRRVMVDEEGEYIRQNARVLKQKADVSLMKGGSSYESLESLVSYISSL

SrUGT76G1 [2] = biological target: T1, SrUGT76G1; conditions: donor site; crystals set up with UDP-glucose
SrUGT76G1 [3] = biological target: T1, SrUGT76G1; conditions: complex with UDP (crystals set up with UDP-xylose); acceptor pocket

O=c1ccn([C@@H]2O[C@H](COP(=O)(O)OP(=O)(O)O[C@H]3OC[C@@H](O)[C@H](O)[C@H]3O)[C@@H](O)[C@H]2O)c(=O)[nH]1 [UDP-xylose]
X-ray crystal structure, 2.5 Å (SrUGT76G1 [1]): UDP-xylose (UDPX-SrUGT76G1)

O=c1ccn([C@@H]2O[C@H](COP(=O)(O)OP(=O)(O)O)[C@@H](O)[C@H]2O)c(=O)[nH]1 [UDP]
X-ray crystal structure, 2.6 Å (SrUGT76G1 [2]): we crystallized SrUGT76G1 complexed with UDP (UDP-SrUGT76G1)

C=C1C[C@@]23CC[C@H]4[C@@](C)(CCC[C@@]4(C)C(=O)O)[C@@H]2CC[C@]1(O[C@@H]1O[C@H](CO)[C@@H](O)[C@H](O)[C@H]1O)C3 [steviolmonoside]
X-ray crystal structure, 2.4 Å (SrUGT76G1 [3]): UDP and steviolmonoside (UDP-Sm-SrUGT76G1)
